Assay results published in US9708314B2, “Heterocyclic amide compound” (NISSAN CHEMICAL INDUSTRIES, LTD., priority 2013, dated 2017).

Tests used:
Type in all cases: in vivo
[1] = tested on: Beta vulgaris ssp. vulgaris; assay: Test Example 4: effect on crop by application to foliage (diluvial soil, plastic box); conditions: foliage application, 320 g/ha
Method in brief: (§1)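 Greenhouse plants (25° C. to 30° C., 14 d, diluvial soil) receive a foliar spray of water-diluted emulsifiable formulation at defined g/ha. Grading after 3 weeks uses a six-step herbicidal-ratio scale, with 4 covering 70% to <90% and 1 covering 5% to <20%.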

[2] = tested on: Zea mays; assay: as above; conditions: foliage application, 320 g/ha
Method in brief: as §1

[3] = tested on: directly sowed Oryza sativa; assay: as above; conditions: foliage application, 320 g/ha
Method in brief: as §1

[4] = tested on: Triticum aestivum; assay: as above; conditions: foliage application, 320 g/ha
Method in brief: as §1

[5] = tested on: Brassica campestris L.; assay: as above; conditions: foliage application, 320 g/ha
Method in brief: as §1

[6] = tested on: Glycine max; assay: as above; conditions: foliage application, 320 g/ha
Method in brief: as §1

[7] = tested on: Echinochloa oryzacola Vasing.; assay: Test Example 2: herbicidal activity, application during weed generation in submerged conditions; conditions: Eighteenth Table; application herbicide amount 320 g/ha
Method in brief: (§2)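 Seeds were sown together in alluvial soil kept under 4 cm of water and grown at 25 °C to 30 °C. Once plants reached the one- to two-leaf stage, the diluted emulsion was applied to the water surface at a predetermined g/ha amount, and effects were rated 0–5 after three weeks.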

[8] = tested on: Scirpus juncoides; assay: as above; conditions: Eighteenth Table; application herbicide amount 320 g/ha
Method in brief: as §2

[9] = tested on: Monochoria vaginalis; assay: as above; conditions: Eighteenth Table; application herbicide amount 320 g/ha
Method in brief: as §2

Compound | f (Beta vulgaris ssp. vulgaris) effect on crop grade [1] | b (Zea mays) effect on crop grade [2] | d (directly sowed Oryza sativa) effect on crop grade [3] | e (Triticum aestivum) effect on crop grade [4] | g (Brassica campestris L.) effect on crop grade [5] | c (Glycine max) effect on crop grade [6] | A (Echinochloa oryzicola Vasing.) herbicidal ratio grade [7] | B (Scirpus juncoides) herbicidal ratio grade [8] | C (Monochoria vaginalis) herbicidal ratio grade [9]
Cn1nnnc1NC(=O)c1ccc(C(F)(F)F)n2c(C[S+]([O-])CC(F)(F)F)nnc12 (stereo not drawn) [2-035] | 5 (Herbicidal ratio of 90% or more (almost completely withered)) | 5 (Herbicidal ratio of 90% or more (almost completely withered)) | 4 (Herbicidal ratio of 70% or more and less than 90%) | 4 (Herbicidal ratio of 70% or more and less than 90%) | 5 (Herbicidal ratio of 90% or more (almost completely withered)) | 2 (Herbicidal ratio of 20% or more and less than 40%) | 2 (Herbicidal ratio of 20% or more and less than 40%) | 2 (Herbicidal ratio of 20% or more and less than 40%) | 3 (Herbicidal ratio of 40% or more and less than 70%)
Cn1nnnc1NC(=O)c1ccc(C(F)(F)F)n2c(S(C)(=O)=O)nnc12 [2-037] | 5 (Herbicidal ratio of 90% or more (almost completely withered)) | 5 (Herbicidal ratio of 90% or more (almost completely withered)) | 4 (Herbicidal ratio of 70% or more and less than 90%) | 5 (Herbicidal ratio of 90% or more (almost completely withered)) | 5 (Herbicidal ratio of 90% or more (almost completely withered)) | 5 (Herbicidal ratio of 90% or more (almost completely withered)) | 5 (Herbicidal ratio of 90% or more (almost completely withered)) | 5 (Herbicidal ratio of 90% or more (almost completely withered)) | 5 (Herbicidal ratio of 90% or more (almost completely withered))
CCS(=O)(=O)c1nnc2c(C(=O)Nc3nnnn3C)ccc(C(F)(F)F)n12 [2-038] | 5 (Herbicidal ratio of 90% or more (almost completely withered)) | 5 (Herbicidal ratio of 90% or more (almost completely withered)) | 5 (Herbicidal ratio of 90% or more (almost completely withered)) | 5 (Herbicidal ratio of 90% or more (almost completely withered)) | 5 (Herbicidal ratio of 90% or more (almost completely withered)) | 5 (Herbicidal ratio of 90% or more (almost completely withered)) | 5 (Herbicidal ratio of 90% or more (almost completely withered)) | 4 (Herbicidal ratio of 70% or more and less than 90%) | 5 (Herbicidal ratio of 90% or more (almost completely withered))
CC(C)c1nnc2c(C(=S)Nc3nnnn3C)ccc(C(F)(F)F)n12 [2-039, 3-Isopropyl-N-(1-methyl-1H-tetrazol-5-yl)-5-(trifluoromethyl)-[1,2,4]triazolo[4,3-a]pyridine-8-carbothioamide] | 5 (Herbicidal ratio of 90% or more (almost completely withered)) | 4 (Herbicidal ratio of 70% or more and less than 90%) | 4 (Herbicidal ratio of 70% or more and less than 90%) | 3 (Herbicidal ratio of 40% or more and less than 70%) | 5 (Herbicidal ratio of 90% or more (almost completely withered)) | 3 (Herbicidal ratio of 40% or more and less than 70%) | 5 (Herbicidal ratio of 90% or more (almost completely withered)) | 5 (Herbicidal ratio of 90% or more (almost completely withered)) | 5 (Herbicidal ratio of 90% or more (almost completely withered))
CCOC(=O)Cc1nnc2c(C(=O)Nc3nnnn3C)ccc(C(F)(F)F)n12 [2-040] | 5 (Herbicidal ratio of 90% or more (almost completely withered)) | 4 (Herbicidal ratio of 70% or more and less than 90%) | 4 (Herbicidal ratio of 70% or more and less than 90%) | 2 (Herbicidal ratio of 20% or more and less than 40%) | 3 (Herbicidal ratio of 40% or more and less than 70%) | 1 (Herbicidal ratio of 5% or more and less than 20%) | 4 (Herbicidal ratio of 70% or more and less than 90%) | 3 (Herbicidal ratio of 40% or more and less than 70%) | 4 (Herbicidal ratio of 70% or more and less than 90%)
COCCn1nnnc1NC(=O)c1ccc(C(F)(F)F)n2c(C(C)C)nnc12 [2-041] | 5 (Herbicidal ratio of 90% or more (almost completely withered)) | 2 (Herbicidal ratio of 20% or more and less than 40%) | 4 (Herbicidal ratio of 70% or more and less than 90%) | 3 (Herbicidal ratio of 40% or more and less than 70%) | 4 (Herbicidal ratio of 70% or more and less than 90%) | 0 (Herbicidal ratio of 5% or less (almost no effect)) | 5 (Herbicidal ratio of 90% or more (almost completely withered)) | 4 (Herbicidal ratio of 70% or more and less than 90%) | 3 (Herbicidal ratio of 40% or more and less than 70%)
Cc1ccc(-c2nnc3c(C(=O)Nc4nnnn4C)ccc(C(F)(F)F)n23)cc1 [2-042] | 4 (Herbicidal ratio of 70% or more and less than 90%) | 4 (Herbicidal ratio of 70% or more and less than 90%) | 3 (Herbicidal ratio of 40% or more and less than 70%) | 0 (Herbicidal ratio of 5% or less (almost no effect)) | 2 (Herbicidal ratio of 20% or more and less than 40%) | 0 (Herbicidal ratio of 5% or less (almost no effect)) | 4 (Herbicidal ratio of 70% or more and less than 90%) | 3 (Herbicidal ratio of 40% or more and less than 70%) | 4 (Herbicidal ratio of 70% or more and less than 90%)
Cn1nnnc1NC(=O)c1ccc(C(F)(F)F)n2c(-c3ccc(F)cc3)nnc12 [2-043] | 5 (Herbicidal ratio of 90% or more (almost completely withered)) | 3 (Herbicidal ratio of 40% or more and less than 70%) | 4 (Herbicidal ratio of 70% or more and less than 90%) | 3 (Herbicidal ratio of 40% or more and less than 70%) | 4 (Herbicidal ratio of 70% or more and less than 90%) | 1 (Herbicidal ratio of 5% or more and less than 20%) | 5 (Herbicidal ratio of 90% or more (almost completely withered)) | 4 (Herbicidal ratio of 70% or more and less than 90%) | 4 (Herbicidal ratio of 70% or more and less than 90%)
COc1cccc(-c2nnc3c(C(=O)Nc4nnnn4C)ccc(C(F)(F)F)n23)c1 [2-044] | 5 (Herbicidal ratio of 90% or more (almost completely withered)) | 3 (Herbicidal ratio of 40% or more and less than 70%) | 4 (Herbicidal ratio of 70% or more and less than 90%) | 1 (Herbicidal ratio of 5% or more and less than 20%) | 3 (Herbicidal ratio of 40% or more and less than 70%) | 2 (Herbicidal ratio of 20% or more and less than 40%) | 5 (Herbicidal ratio of 90% or more (almost completely withered)) | 4 (Herbicidal ratio of 70% or more and less than 90%) | 4 (Herbicidal ratio of 70% or more and less than 90%)
COc1ccccc1-c1nnc2c(C(=O)Nc3nnnn3C)ccc(C(F)(F)F)n12 [2-045] | 5 (Herbicidal ratio of 90% or more (almost completely withered)) | 4 (Herbicidal ratio of 70% or more and less than 90%) | 4 (Herbicidal ratio of 70% or more and less than 90%) | 1 (Herbicidal ratio of 5% or more and less than 20%) | 5 (Herbicidal ratio of 90% or more (almost completely withered)) | 3 (Herbicidal ratio of 40% or more and less than 70%) | 5 (Herbicidal ratio of 90% or more (almost completely withered)) | 3 (Herbicidal ratio of 40% or more and less than 70%) | 4 (Herbicidal ratio of 70% or more and less than 90%)
